MIC data for 10 compounds are collected here from patent US11034648B2, “Cystobactamide derivatives” (priority 2017, dated 2021).

What all share (type): cell-based
Assay [1] relates to E. coli ΔtolC. Briefly: microbe, parasite or virus in culture. To be noted: Escherichia coli, 16 h, read-out: MIC E. coli ΔtolC, small panel, Tables 1a/1b; no visual growth after approx. 16 h. The procedure: (§1) Cystobactamid derivatives synthesized were tested against relevant Gram negative and positive bacteria of clinical interest. Experimental procedures used for the biological characterization of the compounds are the same as previously described in WO 2016/082934.
(§2) Bacterial strains used in susceptibility assays (minimum inhibitory concentration, MIC) were either part of our internal strain collection or purchased from the German Collection of Microorganisms and Cell Cultures (Deutsche Sammlung von Mikroorganismen und Zellkulturen, DSMZ) and the American Type Culture Collection (ATCC). The susceptible E. coli strain (WT) and fluoroquinolone-resistant mutants E. coli WT-3 and WT-III were kindly provided by Prof Dr. P. Heisig, Pharmaceutical Biology and Microbiology, University of Hamburg, Germany. The efflux-deficient strain P. aeruginosa ΔmexAB was kindly provided by Prof Dr. S. Häußler, Institute for Molecular Bacteriology, TWINCORE, Hannover, Germany. All compounds were prepared as DMSO stocks and MIC values were determined in standard microbroth dilution assays in 96-well MTPs as described in Baumann et al., Angew Chem Int Ed Engl. 2014; 53(52):14605-9. In brief, overnight cultures of bacteria were diluted in either tryptic soy broth (TSB: 1.7% peptone casein, 0.3% peptone soymeal, 0.25% glucose, 0.5% NaCl, 0.25% K2HPO4; pH 7.3; S. pneumoniae and E. faecalis) or cation-adjusted Müller-Hinton Broth (BBL™, BD; all other bacteria) and adjusted to 10^4-10^6 cfu/mL. Bacteria were grown in the presence of the derivatives in serial dilution for approx. 16 h at 30-37° C. MIC values were determined and were defined as the antibiotic concentration at which no visual growth of bacteria was observed.

The subject of assay [2] is P. aeruginosa ΔmexAB. Nature of the assay: microbe, parasite or virus in culture. The conditions noted are these: Pseudomonas aeruginosa, 16 h, read-out: MIC P. aeruginosa ΔmexAB, efflux-deficient strain; small panel, Tables 1a/1b. The procedure: as §1, §2
Assay [3] deals with A. baumannii DSM-30008. Nature of the assay: MIC, microbroth dilution susceptibility assay. To be noted: Acinetobacter baumannii, DSM30008; large panel, Table 2a. The procedure: as §1, §2
Assay [4] deals with C. freundii DSM-30039. Briefly: MIC, microbroth dilution susceptibility assay. The conditions noted are these: Citrobacter freundii, DSM30039; large panel, Table 2a. As to the method:
as §1, §2

The subject of assay [5] is E. aerogenes DSM-30053. Briefly: MIC, microbroth dilution susceptibility assay. The conditions noted are these: Klebsiella aerogenes, DSM30053; large panel, Table 2a. As to the method: as §1, §2
Assay [6] relates to E. coli WT DSM-1116. Briefly: MIC, microbroth dilution susceptibility assay. The conditions noted are these: Escherichia coli, no visual growth after approx. 16 h. The procedure: as §1, §2
Assay [7] concerns E. coli WT. Briefly: MIC, microbroth dilution susceptibility assay. The conditions noted are these: Escherichia coli; large panel, Table 2a. The procedure:
as §1, §2

Assay [8] deals with K. pneumoniae DSM-30104. Briefly: MIC, microbroth dilution susceptibility assay. To be noted: Klebsiella pneumoniae, DSM30104; large panel, Table 2a. The procedure: as §1, §2
The subject of assay [9] is P. aeruginosa WT PA14. Nature of the assay: MIC, microbroth dilution susceptibility assay. The conditions noted are these: Pseudomonas aeruginosa. The procedure:
as §1, §2

Assay [10] has as its system P. vulgaris DSM-2140. Nature of the assay: MIC, microbroth dilution susceptibility assay. The conditions noted are these: Proteus vulgaris, DSM2140; large panel, Table 2a. The procedure:
as §1, §2

Assay [11] has as its system S. aureus ATCC-29213. Briefly: MIC, microbroth dilution susceptibility assay. To be noted: Staphylococcus aureus, ATCC29213; large panel, Table 2a. The procedure:
as §1, §2

Assay [12] relates to S. aureus Newman. Nature of the assay: MIC, microbroth dilution susceptibility assay. The conditions noted are these: Staphylococcus aureus, NEWMAN, read-out: MIC S. aureus Newman. The procedure: as §1, §2
In assay [13] the test system is S. marcescens DSM-30121. Nature of the assay: MIC, microbroth dilution susceptibility assay. The conditions noted are these: Serratia marcescens, DSM30121; large panel, Table 2a. The procedure:
as §1, §2

The mark [14] stands for this setting: DSM1116, small panel, Tables 1a/1b, read-out: MIC E. coli WT DSM-1116.
The mark [15] stands for this setting: PA14, small panel, Tables 1a/1b, read-out: MIC P. aeruginosa WT PA14.

Converted amounts (≈) assume the structure as drawn. Where two headings read alike, the source gives them in different places.

For the compound `CC(C)Oc1c(NC(=O)c2ccc(NC(=O)c3ccc(NC(=O)[C@H](CC(N)=O)NC(=O)c4ccc(NC(=O)c5ccc([N+](=O)[O-])cc5)cc4)cc3)c(OC(C)C)c2O)ccc(C(=O)O)c1O` [Compound 61, (S)-4-(4-(4-(4-amino-2-(4-(4-nitrobenzamido)benzamido)-4-oxobutanamido)benzamido)-2-hydroxy-3-isopropoxybenzamido)-2-hydroxy-3-isopropoxybenzoic acid], the MIC is 0.125 to 0.25 µg/mL (≈ 0.138 to 0.276 µM) in assay [1]; 1 to 2 µg/mL (≈ 1.1 to 2.21 µM) in [2]; 1 µg/mL (≈ 1.1 µM) in [3]; 0.5 µg/mL (≈ 0.552 µM) in assay [4]; more than 64 µg/mL in assay [5]; 0.5 µg/mL (≈ 0.552 µM) in assay [6] (setting [14]). Besides, the MIC was 0.5 µg/mL (≈ 0.552 µM) in [7]; more than 64 µg/mL in [8]; more than 64 µg/mL in assay [9] (setting [15]); 0.5 µg/mL (≈ 0.552 µM) in assay [10]; 0.05 µg/mL (≈ 0.0552 µM) in assay [11]; 0.05 µg/mL (≈ 0.0552 µM) in assay [12] (small panel, Tables 1a/1b). Further, in assay [13], the MIC was more than 64 µg/mL.

Take `CC(C)Oc1c(NC(=O)c2ccc(NC(=O)c3ccc(NC(=O)[C@H](CC(N)=O)NC(=O)c4ccc(NC(=O)c5ccc(C#N)cc5)cc4)cc3)c(OC(C)C)c2O)ccc(C(=O)O)c1O` [Compound 62, (S)-4-(4-(4-(4-amino-2-(4-(4-cyanobenzamido)benzamido)-4-oxobutanamido)benzamido)-2-hydroxy-3-isopropoxybenzamido)-2-hydroxy-3-isopropoxybenzoic acid]: the MIC is not above 0.03 µg/mL in assay [1]; 1 µg/mL (≈ 1.13 µM) in [2]; 0.5 µg/mL (≈ 0.564 µM) in [3]; 0.125 µg/mL (≈ 0.141 µM) in assay [4]; more than 64 µg/mL in [5]; 0.25 µg/mL (≈ 0.282 µM) in assay [6] (setting [14]). The MIC in assay [7] was 0.125 to 0.25 µg/mL (≈ 0.141 to 0.282 µM); in [8] it was more than 64 µg/mL; in [9] (setting [15]) it was more than 64 µg/mL; in assay [10], 0.25 µg/mL (≈ 0.282 µM); in assay [11], 0.025 µg/mL (≈ 0.0282 µM); in assay [12] (small panel, Tables 1a/1b), not above 0.03 µg/mL. The MIC in assay [13] was more than 64 µg/mL.

With `CC(C)Oc1c(NC(=O)c2ccc(NC(=O)[C@H](CC(N)=O)NC(=O)c3ccc(NC(=O)c4ccc(N)cc4)cc3)cc2)ccc(C(=O)Nc2ccc(C(=O)O)cc2)c1O` [Compound 40, (S)-4-(4-(4-(4-amino-2-(4-(4-aminobenzamido)benzamido)-4-oxobutanamido)benzamido)-2-hydroxy-3-isopropoxybenzamido)benzoic acid], the MIC in [1] is 32 µg/mL (≈ 39.9 µM); in assay [2], 4 µg/mL (≈ 4.99 µM); in assay [6] (setting [14]) it was 2 µg/mL (≈ 2.49 µM); in assay [9] (setting [15]) it was more than 64 µg/mL; in [12] (small panel, Tables 1a/1b) it was more than 64 µg/mL.

As to `C/C(=C\c1ccc(C#N)cc1)C(=O)Nc1ccc(C(=O)N[C@@H](CC(N)=O)C(=O)Nc2ccc(C(=O)Nc3ccc(C(=O)Nc4ccc(C(=O)O)cc4)c(O)c3OCC(C)C)cc2)cc1` [Compound 125, (S,E)-4-(4-(4-(4-amino-2-(4-(3-(4-cyanophenyl)-2-methylacrylamido)benzamido)-4-oxobutanamido)benzamido)-2-hydroxy-3-isobutoxybenzamido)benzoic acid], the MIC in assay [1] is 0.06 µg/mL (≈ 0.0693 µM); in assay [2], more than 64 µg/mL; in [6] (setting [14]) it was 0.5 µg/mL (≈ 0.577 µM); in [9] (setting [15]), more than 64 µg/mL; in assay [12] (small panel, Tables 1a/1b), 0.06 µg/mL (≈ 0.0693 µM).

Consider `C/C(=C\c1ccc(C#N)cc1)C(=O)Nc1ccc(C(=O)N[C@@H](CC(N)=O)C(=O)Nc2ccc(C(=O)Nc3ccc(C(=O)Nc4ccc(C(=O)O)cc4)c(O)c3OC(C)C)cc2)cc1` [Compound 58, (S,E)-4-(4-(4-(4-amino-2-(4-(3-(4-cyanophenyl)-2-methylacrylamido)benzamido)-4-oxobutanamido)benzamido)-2-hydroxy-3-isopropoxybenzamido)benzoic acid], for which the MIC in assay [1] was less than 0.03 µg/mL; in [2], 0.25 µg/mL (≈ 0.293 µM); in [6] (setting [14]) it was 0.125 µg/mL (≈ 0.147 µM); in assay [9] (setting [15]) it was 1 µg/mL (≈ 1.17 µM); in assay [12] (small panel, Tables 1a/1b), 0.06 µg/mL (≈ 0.0704 µM).

In the case of `CC(C)Oc1c(N)ccc(C(=O)Nc2ccc(C(=O)N[C@@H](CC(N)=O)C(=O)Nc3ccc(C(=O)Nc4ccc(C(=O)Nc5ccc(C(=O)O)cc5)c(O)c4OC(C)C)cc3)cc2)c1O` [Compound 49, (S)-4-(4-(4-(4-amino-2-(4-(4-amino-2-hydroxy-3-isopropoxybenzamido)benzamido)-4-oxobutanamido)benzamido)-2-hydroxy-3-isopropoxybenzamido)benzoic acid], the MIC in [1] was 0.01 to 0.06 µg/mL (≈ 0.0114 to 0.0685 µM); in assay [2], 2 to 4 µg/mL (≈ 2.28 to 4.57 µM); in assay [3], 32 µg/mL (≈ 36.5 µM); in assay [4], 2 µg/mL (≈ 2.28 µM); in assay [5] it was more than 64 µg/mL; in [6] (setting [14]), 2 µg/mL (≈ 2.28 µM). Further, the MIC in assay [7] was 2 µg/mL (≈ 2.28 µM); in [8] it was more than 64 µg/mL; in [9] (setting [15]) it was more than 64 µg/mL; in assay [10], 4 µg/mL (≈ 4.57 µM); in assay [11], more than 64 µg/mL; in assay [12] (small panel, Tables 1a/1b) it was more than 64 µg/mL. In addition, the MIC in assay [13] was more than 64 µg/mL.

For `CC(C)Oc1c(NC(=O)c2ccc(NC(=O)[C@H](CC(N)=O)NC(=O)c3ccc(NC(=O)c4cccc([N+](=O)[O-])c4)cc3)cc2)ccc(C(=O)Nc2ccc(C(=O)O)cc2)c1O` [Compound 41, (S)-4-(4-(4-(4-amino-2-(4-(3-nitrobenzamido)benzamido)-4-oxobutanamido)benzamido)-2-hydroxy-3-isopropoxybenzamido)benzoic acid], the MIC in [1] is 0.25 µg/mL (≈ 0.301 µM); in assay [2] it was 0.5 µg/mL (≈ 0.601 µM); in [6] (setting [14]), more than 64 µg/mL; in assay [9] (setting [15]), more than 64 µg/mL; in assay [12] (small panel, Tables 1a/1b) it was more than 64 µg/mL.

For `CC(C)Oc1c(NC(=O)c2ccc(NC(=O)[C@H](CC(N)=O)NC(=O)c3ccc(C#Cc4ccc(C#N)cc4)cc3)cc2)ccc(C(=O)Nc2ccc(C(=O)O)cc2)c1O` [Compound 128, (S)-4-(4-(4-(4-Amino-2-(4-((4-cyanophenyl)ethynyl)benzamido)-4-oxobutanamido)benzamido)-2-hydroxy-3-isopropoxybenzamido)benzoic acid], the MIC in assay [1] was 0.06 µg/mL (≈ 0.0757 µM); in assay [2] it was 0.5 µg/mL (≈ 0.631 µM); in assay [6] (DSM1116, 16 h, read-out: MIC E. coli WT DSM-1116, small panel, Tables 1a/1b), 0.06 µg/mL (≈ 0.0757 µM); in assay [9] (PA14, read-out: MIC P. aeruginosa WT PA14), more than 64 µg/mL; in [12], less than 0.03 µg/mL.

`C/C(=C/c1ccc(C#N)cc1)C(=O)Nc1ccc(C(=O)N[C@@H](CC(N)=O)C(=O)Nc2ccc(C(=O)Nc3ccc(C(=O)Nc4ccc(C(=O)O)cc4)c(O)c3OC(C)C)cc2)cc1` [Compound 122, (S,Z)-4-(4-(4-(4-amino-2-(4-(3-(4-cyanophenyl)-2-methylacrylamido)benzamido)-4-oxobutanamido)benzamido)-2-hydroxy-3-isopropoxybenzamido)benzoic acid]: the MIC in assay [1] was 0.25 µg/mL (≈ 0.293 µM); in [2], more than 64 µg/mL; in assay [6] (setting [14]), 1 µg/mL (≈ 1.17 µM); in assay [9] (setting [15]), more than 64 µg/mL; in assay [12] (small panel, Tables 1a/1b) it was 8 µg/mL (≈ 9.39 µM).

As for `CC(C)Oc1c(NC(=O)c2ccc(NC(=O)[C@H](CC(N)=O)NC(=O)c3ccc(NC(=O)c4ccc(C#N)cc4)cc3)cc2)ccc(C(=O)NCc2ccc(C(=O)O)cc2)c1O` [Compound 89, (S)-4-((4-(4-(4-amino-2-(4-(4-cyanobenzamido)benzamido)-4-oxobutanamido)benzamido)-2-hydroxy-3-isopropoxybenzamido)methyl)benzoic acid], the MIC in assay [1] was 0.25 µg/mL (≈ 0.303 µM); in assay [2], more than 64 µg/mL; in assay [6] (setting [14]), more than 64 µg/mL; in [9] (setting [15]) it was more than 64 µg/mL; in assay [12] (small panel, Tables 1a/1b), more than 64 µg/mL.
